Reference: ChEMBL document CHEMBL1671702, “Baseline genotypic and phenotypic susceptibilities of HIV-1 group O to enfuvirtide” (Antimicrob Agents Chemother, 2010)
The source made the active and inactive calls. The calls are words filed in the database; no cut-off is given here.

Key:
[1] = system: Human immunodeficiency virus type 1 (BRU ISOLATE); test: Antiviral activity against Human immunodeficiency virus type 1 (BRU ISOLATE); format: functional
[2] = system: Human immunodeficiency virus 2; test: Antiviral activity against Human immunodeficiency virus type 2 (ISOLATE ROD); format: functional, organism-based
[3] = system: Human immunodeficiency virus 1; test: Antiviral activity against HIV-1 group O; conditions: Human immunodeficiency virus 1, group O
[4] = system: Human immunodeficiency virus 1; test: Antiviral activity against HIV-1 group O expressing gp41 N42D, N43K mutant gene; format: functional
[5] = system: Human immunodeficiency virus 1; test: Antiviral activity against HIV-1 group M; conditions: Human immunodeficiency virus 1, group M
[6] = system: Human immunodeficiency virus 1; test: Antiviral activity against HIV-1 group O expressing gp41 T27A mutant gene; format: functional
[7] = system: Human immunodeficiency virus 1; test: Antiviral activity against HIV-1 group O expressing gp41 E119Q mutant gene; format: functional

Q: How did the Activity [1] turn out when enfuvirtide was run?
A: The Activity was “Active”.

Q: What about the Activity [2] of the same substance?
A: The Activity was “inactive”.

Q: And the IC50 [3]?
A: Its IC50 is 4 nM.

Q: And the IC50 [4]?
A: Its IC50 is 6.4 nM.

Q: And the IC50 [5]?
A: Its IC50 is 6.4 nM.

Q: What about the IC50 [6] of the same substance?
A: Its IC50 is greater than 1000 nM.

Q: What about the IC50 [7] of the same substance?
A: The IC50 was greater than 1000 nM.
